Results from PubChem BioAssay (NCI).
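Five concentrations, 48 hours, 96-well plates. TGI denotes the concentration required for complete inhibition of growth.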

How the values were obtained:
Assay in all cases: NCI anticancer screen, dose series, 48 h
[1] = tested on: 786-0 renal
[2] = tested on: A498 renal
[3] = tested on: A549 NSCLC
[4] = tested on: ACHN renal
[5] = tested on: CAKI-1 renal
[6] = tested on: CCRF-CEM leukemia
[7] = tested on: COLO 205 colon
[8] = tested on: DLD-1 colon
[9] = tested on: DMS 114 small cell lung
[10] = tested on: DMS 273 small cell lung
[11] = tested on: EKVX NSCLC
[12] = tested on: HCC-2998 colon
[13] = tested on: HCT-116 colon
[14] = tested on: HCT-15 colon
[15] = tested on: HOP-18 NSCLC
[16] = tested on: HOP-62 NSCLC
[17] = tested on: HT29 colon
[18] = tested on: IGROV1 ovarian
[19] = tested on: K-562 leukemia
[20] = tested on: KM12 colon
[21] = tested on: KM20L2 colon
[22] = tested on: LOX IMVI melanoma
[23] = tested on: LXFL 529 NSCLC
[24] = tested on: M14 melanoma
[25] = tested on: M19-MEL melanoma
[26] = tested on: MALME-3M melanoma
[27] = tested on: MOLT-4 leukemia
[28] = tested on: NCI-H23 lung
[29] = tested on: NCI-H460 lung
[30] = tested on: OVCAR-3 ovarian
[31] = tested on: OVCAR-4 ovarian
[32] = tested on: OVCAR-5 ovarian
[33] = tested on: OVCAR-8 ovarian
[34] = tested on: RPMI-8226 leukemia
[35] = tested on: RXF 393 renal
[36] = tested on: RXF-631 renal
[37] = tested on: SF-268 CNS
[38] = tested on: SF-295 CNS
[39] = tested on: SF-539 CNS
[40] = tested on: SK-MEL-2 melanoma
[41] = tested on: SK-MEL-28 melanoma
[42] = tested on: SK-MEL-5 melanoma
[43] = tested on: SK-OV-3 ovarian
[44] = tested on: SN12C renal
[45] = tested on: SNB-19 CNS
[46] = tested on: SNB-75 CNS
[47] = tested on: SNB-78 CNS
[48] = tested on: SW-620 colon
[49] = tested on: TK-10 renal
[50] = tested on: U251 CNS
[51] = tested on: UACC-257 melanoma
[52] = tested on: UACC-62 melanoma
[53] = tested on: UO-31 renal
[54] = tested on: XF 498 CNS
[55] = tested on: HL-60(TB) leukemia
[56] = tested on: NCI-H226 lung

Measured: TGI

O=c1c2ccccc2oc2nccnc12
not listed: [55] | [56]
> 100 µM: all other assays above

Cc1cc(C)cc(NC(=O)CCC(=O)C2CCC/C2=N\NC(=O)C(=O)NN)c1 (stereo not drawn)
not listed: [16] | [47]
> 100 µM: all other assays above
